Test results: EP0282309A2, “Azole-aminomethylene bisphosphonic acid derivatives” (YAMANOUCHI PHARMACEUTICAL CO. LTD., priority 1987, dated 1988)

System: PTH-induced hypercalcemia rats
Assay: Hypercalcemia inhibiting effect: serum Ca++ lowering in PTH-induced hypercalcemia rats
Format: in vivo, Wistar male rats
Settings: blood 45 min after PTH, mean ± S.E., N=5
Description: Typical effective ingredients according to the present invention were administered to parathyroid hormone (hereinafter referred to as "PTH")-induced hypercalcemia rats and, for each ingredient, the serum calcium level lowering effect was estimated. Test method: Human 1 to 34 PTH (obtained from the Peptide Institute) was intravenously administered at a dose of 30 µg/kg to 5-week-old Wistar male rats fasted for 20 hours. For the administration, PTH was dissolved in physiological saline containing 0.1% BSA (bovine serum albumin) and the solution was given to the rats in an amount of 5 ml/kg. The normal control group was given 0.1% BSA-containing physiological saline alone in the same manner. […] The blood samples were immediately centrifuged at 4°C, and 3,000 rpm (revolutions per minute) for 10 minutes. The thus-separated sera were measured for ionic calcium (Ca⁺⁺) concentration by means of a Ca⁺⁺ meter (Sera 250; Horiba Seisakusho).
The compounds according to the invention were dissolved, using sodium hydroxide and hydrochloric acid, in physiological saline (pH 7.4), for subcutaneous administration, in such amounts that the dose amounted to 2 ml/kg, and, for oral administration, in distilled water (pH 7.4) so that the dose amounted to 5 ml/kg. They were administered 24 or 72 hours before PTH administration. The normal control group and the control group were given physiological saline or distilled water in the same manner.
The results for each group were expressed in terms of mean ±S.E. (standard error) and comparison was made among the groups by testing by one-way analysis of variance. The significance level was taken at 5%.
The compound of Example 6 was administered 24 hours before PTH administration while other compounds were administered 72 hours before PTH administration.

[1] = oral administration, 10 mg/kg, 72 hours before PTH
[2] = oral administration, 30 mg/kg, 72 hours before PTH
[3] = oral administration, 100 mg/kg, 72 hours before PTH
[4] = subcutaneous administration, 0.1 mg/kg, 72 hours before PTH
[5] = subcutaneous administration, 0.3 mg/kg, 72 hours before PTH
[6] = subcutaneous administration, 1.0 mg/kg, 72 hours before PTH

Compound | Serum Ca^++ [1] | Serum Ca^++ [2] | Serum Ca^++ [3] | Serum Ca^++ (subcutaneous administration, 0.03 mg/kg, 72 hours before PTH (30 µg/kg i.v.)) [m moles/liter] | Serum Ca^++ [4] | Serum Ca^++ (oral administration, 10 mg/kg, 24 hours before PTH) [mmol/L] | Serum Ca^++ (oral administration, 30 mg/kg, 24 hours before PTH) [mmol/L] | Serum Ca^++ (oral administration, 100 mg/kg, 24 hours before PTH) [mmol/L] | Serum Ca^++ (subcutaneous administration, 0.1 mg/kg, 24 hours before PTH) [mmol/L] | Serum Ca^++ (subcutaneous administration, 0.3 mg/kg, 24 hours before PTH) [mmol/L] | Serum Ca^++ (subcutaneous administration, 1.0 mg/kg, 24 hours before PTH) [mmol/L] | Serum Ca^++ [5] | Serum Ca^++ [6]
Cc1cnc(NC(P(=O)(O)O)P(=O)(O)O)o1 [Example 10, [(5-methyl-2-oxazolyl)amino]methylene bis(phosphonic acid)] | 1.42 ± 0.03 m moles/liter | 1.27 ± 0.03 m moles/liter | 1.15 ± 0.04 m moles/liter | 1.46 ± 0.01 | 1.29 ± 0.01 m moles/liter | – | – | – | – | – | – | – | –
O=P(O)(O)C(Nc1nccs1)P(=O)(O)O [Example 6, [(2-thiazolyl)amino]methylenebis(phosphonic acid)] | – | – | – | – | – | 1.58 ± 0.03 | 1.54 ± 0.02 | 1.45 ± 0.03 | 1.49 ± 0.01 | 1.45 ± 0.01 | 1.41 ± 0.01 | – | –
Cc1cnc(NC(P(=O)(O)O)P(=O)(O)O)s1 [Example 20, [(5-Methyl-2-thiazolyl)amino]methylene bis(phosphonic acid)] | 1.39 ± 0.01 mmol/L | 1.25 ± 0.01 mmol/L | 1.12 ± 0.0 mmol/L | – | 0.95 ± 0.01 m moles/liter | – | – | – | – | – | – | 0.93 ± 0.03 m moles/liter | 0.92 ± 0.03 m moles/liter
Cc1nc(NC(P(=O)(O)O)P(=O)(O)O)sc1C [Example 21, [(4,5-Dimethyl-2-thiazolyl)amino]methylene bis(phosphonic acid)] | – | – | – | – | 1.48 ± 0.01 mmol/L | – | – | – | – | – | – | 1.40 ± 0.01 mmol/L | 1.30 ± 0.02 mmol/L
